Columns and labels:
VHL-NanoLuc = target: T1, VHL-NanoLuc (Homo sapiens, UniProt P40337); experiment: NanoBRET VHL target engagement assay in HEK293 cells; format: binding
T1 construct: host or cells: HEK293
Experimental: Figure 9 Binding affinities to VHL and LRRK2. (A) Binding affinity of the tested compounds to VHL using the FP assay. […] NanoBRET target engagement assays of tested compounds to VHL (B) and LRRK2 (C) in permeabilized and live-cell modes. The indicated compounds were titrated into HEK293 cells transfected with VHL-NanoLuc (B) or LRRK2-NanoLuc fusion (C) in the presence of VHL tracer (B) or LRRK2 tracer (C). 0.25 and 0.5 μM VHL tracers were used for the permeabilized and live mode VHL engagement assays separately. 0.125 and 0.5 μM of LRRK2 tracer were used for the permeabilized and live mode LRRK2 engagement assays separately. […]
For VHL and LRRK2 target engagement experiments in live and permeabilized cells, the HEK293 cells were transfected with the VHL-NanoLuc fusion vector (Promega, N275A) or LRRK2-NanoLuc fusion vector (Promega, NV3401) following Promega’s protocol and seeded into a white 384-well plate (Corning3570) at a density of 6000 cells/well. […] The filtered luminescence was measured within 10 min following the addition of the substrate on a GloMax Discover microplate reader (Promega) or a PHERAstar (BMG LABTECH) plate reader equipped with a 450 nm bandpass filter (donor) and a 600 nm long-pass filter (acceptor). […]

pRab10 = experiment: Rab10 dephosphorylation in R1441C LRRK2 MEFs; format: cell-based; conditions: Mus musculus, 4 h, read-out: EC50s (pRab10)
Source text: Primary MEFs were generated as described in a previous study.[80] Briefly, the uterine horn was collected from adult female mice at day E12.5 and transferred to a 10 cm tissue culture dish containing cold PBS. Two forceps were used to tear the yolk sacs to isolate each embryo. Forceps were cleaned thoroughly with 70% ethanol between each embryo isolation. The embryos were culled, and a tissue piece was collected in a polymerase chain reaction (PCR) tube for genotyping. The red tissue of the embryo was removed, and the remainder was minced with a scalpel blade and incubated with a 7.5 mL trypsin–ethylenediaminetetraacetic acid (EDTA) solution for 10 min in a 37 °C, 5% CO2 tissue culture incubator. The dish was removed from the incubator and checked under a light microscope for single cells. Complete media (7.5 mL) was added to the trypsinized cells, and the cell suspension was transferred to a 15 mL Falcon tube and centrifuged at 1200 rpm for 5 min at room temperature. […]
Culturing and passaging of adherent cell lines were carried out using an aseptic technique in CL1 or CL2 (for PBMC isolation) biological safety cabinets. […] The cell pellet was discarded, and the supernatant was collected for analysis by quantitative immunoblotting. […] Protein concentrations of cell lysates were determined using the Bradford assay. […]

T1 sequence (P40337 whole entry): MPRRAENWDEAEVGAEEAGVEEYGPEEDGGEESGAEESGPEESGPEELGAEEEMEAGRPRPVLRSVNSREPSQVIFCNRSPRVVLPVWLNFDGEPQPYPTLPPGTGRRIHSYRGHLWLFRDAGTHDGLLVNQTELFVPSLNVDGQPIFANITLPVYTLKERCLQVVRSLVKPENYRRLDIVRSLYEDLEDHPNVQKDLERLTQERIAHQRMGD

SMILES | VHL IC50 Permeabilized/IC50 Live (VHL-NanoLuc; ratio used to compare permeabilities) | IC50 (VHL-NanoLuc; permeabilized HEK293 cells) [nM] | EC50 (pRab10) [nM]
CNc1nc(Nc2ccc(C(=O)N3CCN(CCOCCOCCSC(C)(C)[C@H](NC(=O)C4(F)CC4)C(=O)N4C[C@H](O)C[C@H]4C(=O)NCc4ccc(-c5scnc5C)cc4)CC3)cc2OC)ncc1Cl [SD75] | 0.76 |  | 
CNc1nc(Nc2ccc(C(=O)N3CCN(C[C@H]4CC[C@H](CSC(C)(C)[C@H](NC(=O)C5(F)CC5)C(=O)N5C[C@H](O)CC5C(=O)NCc5ccc(-c6scnc6C)cc5)CC4)CC3)cc2OC)ncc1Cl (stereo partly drawn) [XL01126, (2S,4R)-1-((R)-3-((((1R,4R)-4-((4-(4-((5-Chloro-4-(methylamino)pyrimidin-2-yl)amino)-3-methoxybenzoyl)piperazin-1-yl)methyl)cyclohexyl)methyl)thio)-2-(1-fluorocyclopropane-1-carboxamido)-3-methylbutanoyl)-4-hydroxy-N-(4-(4-methylthiazol-5-yl)benzyl)pyrrolidine-2-carboxamide] |  | > 10000 | 30
CNc1nc(Nc2ccc(C(=O)N3CCN(C[C@H]4CC[C@H](CSC(C)(C)[C@H](NC(=O)C5(F)CC5)C(=O)N5C[C@@H](O)C[C@H]5C(=O)NCc5ccc(-c6scnc6C)cc5)CC4)CC3)cc2OC)ncc1Cl [cis-XL01126, (2S,4S)-1-((R)-3-((((1R,4R)-4-((4-(4-((5-Chloro-4-(methylamino)pyrimidin-2-yl)amino)-3-methoxybenzoyl)piperazin-1-yl)methyl)cyclohexyl)methyl)thio)-2-(1-fluorocyclopropane-1-carboxamido)-3-methylbutanoyl)-4-hydroxy-N-(4-(4-methylthiazol-5-yl)benzyl)pyrrolidine-2-carboxamide] |  |  | 158
